The results in this text go back to ChEMBL document CHEMBL1143442, “Inhibitors of the tyrosine kinase EphB4. Part 2: structure-based discovery and optimisation of 3,5-bis substituted anilinopyrimidines” (Bioorg Med Chem Lett, 2008).

pIC50: −log10 of the molar value.

For test [1], the target named is T1, Ephrin type-B receptor 4 (Homo sapiens, UniProt P54760).
T1 sequence (P54760 whole entry): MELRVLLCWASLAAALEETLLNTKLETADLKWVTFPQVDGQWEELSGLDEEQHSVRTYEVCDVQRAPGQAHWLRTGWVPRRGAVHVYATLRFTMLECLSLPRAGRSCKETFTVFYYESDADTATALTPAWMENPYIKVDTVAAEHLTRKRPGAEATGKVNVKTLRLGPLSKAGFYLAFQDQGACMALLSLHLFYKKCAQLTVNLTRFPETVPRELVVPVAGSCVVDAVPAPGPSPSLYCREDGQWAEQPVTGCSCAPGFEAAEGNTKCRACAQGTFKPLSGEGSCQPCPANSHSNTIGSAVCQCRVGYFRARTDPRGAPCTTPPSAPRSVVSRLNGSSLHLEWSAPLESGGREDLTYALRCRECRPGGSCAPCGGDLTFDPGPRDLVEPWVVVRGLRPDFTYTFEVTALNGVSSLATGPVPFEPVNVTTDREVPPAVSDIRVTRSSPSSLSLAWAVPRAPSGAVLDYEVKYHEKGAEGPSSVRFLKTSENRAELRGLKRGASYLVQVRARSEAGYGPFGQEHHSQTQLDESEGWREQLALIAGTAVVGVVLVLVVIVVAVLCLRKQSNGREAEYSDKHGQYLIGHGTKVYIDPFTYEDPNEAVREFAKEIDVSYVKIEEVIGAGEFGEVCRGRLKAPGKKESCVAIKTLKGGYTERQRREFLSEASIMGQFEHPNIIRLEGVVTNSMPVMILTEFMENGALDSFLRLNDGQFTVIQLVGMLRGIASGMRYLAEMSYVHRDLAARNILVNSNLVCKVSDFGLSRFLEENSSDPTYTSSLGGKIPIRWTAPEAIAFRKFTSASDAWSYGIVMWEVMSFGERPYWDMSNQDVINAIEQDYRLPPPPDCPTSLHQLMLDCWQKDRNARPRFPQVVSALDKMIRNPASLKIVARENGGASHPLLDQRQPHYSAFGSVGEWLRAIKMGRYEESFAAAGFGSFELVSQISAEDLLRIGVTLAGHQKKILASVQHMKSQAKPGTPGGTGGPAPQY
Description: Inhibition of Myc-His-tagged EphB4 expressed in CHOK1 cells assessed as phosphorylation by ELISA. The test is classed as cell-based, CHO-K1. Background: An ELISA detects its analyte on a solid surface through an enzyme-linked reagent.

Test [2] addresses T1, Ephrin type-B receptor 4. Description: Inhibition of EphB4.

For the compound `NS(=O)(=O)c1cccc(Nc2nccc(Nc3c(Cl)ccc4c3OCO4)n2)c1`, the negative-log IC50 (pIC50) (commonly the negative decadic logarithm of the IC50, by convention in mol/L) on Ephrin type-B receptor 4 [1] was 6.76.
In the case of `NC(=O)c1cc(Nc2nccc(Nc3c(Cl)ccc4c3OCO4)n2)cc(C(N)=O)c1`, the values for the pIC50 at Ephrin type-B receptor 4 [1] and at Ephrin type-B receptor 4 [2] were < 4.52 and 7.11, respectively.
Turning to `CS(=O)(=O)Nc1cc(Nc2nccc(Nc3c(Cl)ccc4c3OCO4)n2)cc(S(N)(=O)=O)c1`, the pIC50 at Ephrin type-B receptor 4 [1] is 4.85; against Ephrin type-B receptor 4 [2], 9.00.
Turning to `CS(=O)(=O)Nc1cc(Nc2nccc(Nc3c(Cl)ccc4c3OCO4)n2)cc(NS(C)(=O)=O)c1`, the pIC50 was 5.14 on Ephrin type-B receptor 4 [1] and 7.82 against Ephrin type-B receptor 4 [2].
The like results for `CS(=O)(=O)c1cc(Nc2nccc(Nc3c(Cl)ccc4c3OCO4)n2)cc(S(C)(=O)=O)c1` were, in that order, 6.68 and 6.94.
The corresponding values for `CS(=O)(=O)c1cc(Nc2nccc(Nc3c(Cl)ccc4c3OCO4)n2)cc(C(N)=O)c1` are 4.65 and 7.64.
The like results for `CS(=O)(=O)c1cc(Nc2nccc(Nc3c(Cl)ccc4c3OCO4)n2)cc(N2CCOCC2)c1` were, in that order, 7.49 and 8.70.
Consider `CS(=O)(=O)Nc1cc(Nc2nccc(Nc3c(Cl)ccc4c3OCO4)n2)cc(C(N)=O)c1`, for which the pIC50 on Ephrin type-B receptor 4 [1] was < 4.52; against Ephrin type-B receptor 4 [2], 6.43.
In the case of `NC(=O)c1cccc(Nc2nccc(Nc3c(Cl)ccc4c3OCO4)n2)c1`, the pIC50 at Ephrin type-B receptor 4 [1] was 6.05.
In the case of `NC(=O)c1cc(Nc2nccc(Nc3c(Cl)ccc4c3OCO4)n2)cc(N2CCOCC2)c1`, the values for the negative-log IC50 (pIC50) at Ephrin type-B receptor 4 [1] and against Ephrin type-B receptor 4 [2] were 6.05 and 7.89, respectively.
The corresponding values for `CS(=O)(=O)Nc1cc(Nc2nccc(Nc3c(Cl)ccc4c3OCO4)n2)cc(S(C)(=O)=O)c1` are 5.69 and 7.92.
The corresponding values for `CS(=O)(=O)Nc1cc(Nc2nccc(Nc3c(Cl)ccc4c3OCO4)n2)cc(N2CCOCC2)c1` are 6.77 and 8.70.
